Numbers after ± are expanded uncertainties.
Experiment: molar heat capacity at constant pressure
Details: 101.33 kPa, Crystal, Small sample (50 mg) DSC

Q: With `[Ca+2].[O]=[Mo](=[O])([O-])[O-]` [calcium molybdate(VI)] as the molecule, how does the “molar heat capacity at constant pressure” value (255.5 K) read?
A: 107.3 ± 4.6 J/K/mol

Q: And the “molar heat capacity at constant pressure” value (255.9 K)?
A: 107.4 ± 4.6 J/K/mol

Q: What about the “molar heat capacity at constant pressure” value (256.9 K) of the same molecule?
A: 107.5 ± 4.6 J/K/mol

Q: What about the “molar heat capacity at constant pressure” value (257.9 K) of the same molecule?
A: 107.6 ± 4.6 J/K/mol

Q: And the “molar heat capacity at constant pressure” value (258.9 K)?
A: 107.7 ± 4.6 J/K/mol

Q: And the “molar heat capacity at constant pressure” value (259.9 K)?
A: 107.8 ± 4.6 J/K/mol

Q: What about the “molar heat capacity at constant pressure” value (260.9 K) of the same molecule?
A: 107.8 ± 4.6 J/K/mol

Q: What about the “molar heat capacity at constant pressure” value (261.9 K) of the same molecule?
A: 107.9 ± 4.6 J/K/mol

Q: What about the “molar heat capacity at constant pressure” value (262.9 K) of the same molecule?
A: 108 ± 4.6 J/K/mol

Q: And the “molar heat capacity at constant pressure” value (263.9 K)?
A: 108.2 ± 4.6 J/K/mol

Q: And the “molar heat capacity at constant pressure” value (264.9 K)?
A: 108.3 ± 4.6 J/K/mol

Q: What about the “molar heat capacity at constant pressure” value (265.9 K) of the same molecule?
A: 108.4 ± 4.6 J/K/mol

Q: And the “molar heat capacity at constant pressure” value (266.9 K)?
A: 108.6 ± 4.6 J/K/mol

Q: And the “molar heat capacity at constant pressure” value (267.9 K)?
A: 108.8 ± 4.6 J/K/mol

Q: What about the “molar heat capacity at constant pressure” value (268.9 K) of the same molecule?
A: 109 ± 4.6 J/K/mol

Q: What about the “molar heat capacity at constant pressure” value (269.9 K) of the same molecule?
A: 109.2 ± 4.6 J/K/mol

Q: What about the “molar heat capacity at constant pressure” value (270.9 K) of the same molecule?
A: 109.4 ± 4.6 J/K/mol

Q: And the “molar heat capacity at constant pressure” value (272 K)?
A: 109.6 ± 4.7 J/K/mol

Q: And the “molar heat capacity at constant pressure” value (273 K)?
A: 109.8 ± 4.7 J/K/mol

Q: What about the “molar heat capacity at constant pressure” value (274 K) of the same molecule?
A: 110 ± 4.7 J/K/mol

Q: What about the “molar heat capacity at constant pressure” value (275 K) of the same molecule?
A: 110.3 ± 4.7 J/K/mol

Q: What about the “molar heat capacity at constant pressure” value (276 K) of the same molecule?
A: 110.5 ± 4.7 J/K/mol

Q: What about the “molar heat capacity at constant pressure” value (277 K) of the same molecule?
A: 110.7 ± 4.7 J/K/mol

Q: What about the “molar heat capacity at constant pressure” value (278 K) of the same molecule?
A: 111 ± 4.7 J/K/mol

Q: And the “molar heat capacity at constant pressure” value (279 K)?
A: 111.2 ± 4.7 J/K/mol

Q: And the “molar heat capacity at constant pressure” value (280 K)?
A: 111.5 ± 4.7 J/K/mol

Q: What about the “molar heat capacity at constant pressure” value (281 K) of the same molecule?
A: 111.6 ± 4.7 J/K/mol

Q: And the “molar heat capacity at constant pressure” value (282 K)?
A: 111.8 ± 4.7 J/K/mol

Q: And the “molar heat capacity at constant pressure” value (283 K)?
A: 112 ± 4.8 J/K/mol

Q: And the “molar heat capacity at constant pressure” value (284 K)?
A: 112.2 ± 4.8 J/K/mol

Q: What about the “molar heat capacity at constant pressure” value (285 K) of the same molecule?
A: 112.3 ± 4.8 J/K/mol

Q: What about the “molar heat capacity at constant pressure” value (286 K) of the same molecule?
A: 112.5 ± 4.8 J/K/mol

Q: And the “molar heat capacity at constant pressure” value (287 K)?
A: 112.7 ± 4.8 J/K/mol

Q: What about the “molar heat capacity at constant pressure” value (288 K) of the same molecule?
A: 112.9 ± 4.8 J/K/mol

Q: And the “molar heat capacity at constant pressure” value (289 K)?
A: 113 ± 4.8 J/K/mol

Q: What about the “molar heat capacity at constant pressure” value (290.1 K) of the same molecule?
A: 113.2 ± 4.8 J/K/mol

Q: And the “molar heat capacity at constant pressure” value (291.1 K)?
A: 113.4 ± 4.8 J/K/mol

Q: And the “molar heat capacity at constant pressure” value (292.1 K)?
A: 113.6 ± 4.8 J/K/mol

Q: And the “molar heat capacity at constant pressure” value (293.1 K)?
A: 113.8 ± 4.8 J/K/mol

Q: And the “molar heat capacity at constant pressure” value (294.1 K)?
A: 114 ± 4.8 J/K/mol

Q: What about the “molar heat capacity at constant pressure” value (295.1 K) of the same molecule?
A: 114.1 ± 4.8 J/K/mol

Q: And the “molar heat capacity at constant pressure” value (296.1 K)?
A: 114.3 ± 4.9 J/K/mol

Q: And the “molar heat capacity at constant pressure” value (297.1 K)?
A: 114.5 ± 4.9 J/K/mol

Q: And the “molar heat capacity at constant pressure” value (298.1 K)?
A: 114.6 ± 4.9 J/K/mol

Q: What about the “molar heat capacity at constant pressure” value (298.15 K) of the same molecule?
A: 114.2 ± 4.8 J/K/mol

Q: And the “molar heat capacity at constant pressure” value (299.1 K)?
A: 114.8 ± 4.9 J/K/mol

Q: And the “molar heat capacity at constant pressure” value (300.1 K)?
A: 115 ± 4.9 J/K/mol

Q: And the “molar heat capacity at constant pressure” value (301.1 K)?
A: 115.1 ± 4.9 J/K/mol

Q: What about the “molar heat capacity at constant pressure” value (302.1 K) of the same molecule?
A: 115.3 ± 4.9 J/K/mol

Q: And the “molar heat capacity at constant pressure” value (303.1 K)?
A: 115.4 ± 4.9 J/K/mol

Q: And the “molar heat capacity at constant pressure” value (304.1 K)?
A: 115.6 ± 4.9 J/K/mol

Q: What about the “molar heat capacity at constant pressure” value (305.1 K) of the same molecule?
A: 115.7 ± 4.9 J/K/mol

Q: What about the “molar heat capacity at constant pressure” value (306.1 K) of the same molecule?
A: 115.9 ± 4.9 J/K/mol

Q: What about the “molar heat capacity at constant pressure” value (307.1 K) of the same molecule?
A: 116.1 ± 4.9 J/K/mol

Q: What about the “molar heat capacity at constant pressure” value (308.2 K) of the same molecule?
A: 116.2 ± 4.9 J/K/mol

Q: What about the “molar heat capacity at constant pressure” value (309.2 K) of the same molecule?
A: 116.4 ± 4.9 J/K/mol

Q: What about the “molar heat capacity at constant pressure” value (310 K) of the same molecule?
A: 116.5 ± 4.9 J/K/mol

Q: What about the “molar heat capacity at constant pressure” value (310.2 K) of the same molecule?
A: 116.5 ± 4.9 J/K/mol

Q: What about the “molar heat capacity at constant pressure” value (311.2 K) of the same molecule?
A: 116.7 ± 5 J/K/mol

Q: What about the “molar heat capacity at constant pressure” value (312.2 K) of the same molecule?
A: 116.8 ± 5 J/K/mol

Q: And the “molar heat capacity at constant pressure” value (313.2 K)?
A: 116.9 ± 5 J/K/mol

Q: And the “molar heat capacity at constant pressure” value (314.2 K)?
A: 117.1 ± 5 J/K/mol

Q: And the “molar heat capacity at constant pressure” value (315 K)?
A: 117.3 ± 5 J/K/mol

Q: What about the “molar heat capacity at constant pressure” value (315.2 K) of the same molecule?
A: 117.3 ± 5 J/K/mol

Q: And the “molar heat capacity at constant pressure” value (316.2 K)?
A: 117.4 ± 5 J/K/mol

Q: What about the “molar heat capacity at constant pressure” value (317.2 K) of the same molecule?
A: 117.6 ± 5 J/K/mol

Q: And the “molar heat capacity at constant pressure” value (317.4 K)?
A: 117.7 ± 5 J/K/mol

Q: What about the “molar heat capacity at constant pressure” value (318.2 K) of the same molecule?
A: 117.8 ± 5 J/K/mol

Q: What about the “molar heat capacity at constant pressure” value (318.4 K) of the same molecule?
A: 118 ± 5 J/K/mol

Q: And the “molar heat capacity at constant pressure” value (319.2 K)?
A: 117.9 ± 5 J/K/mol

Q: What about the “molar heat capacity at constant pressure” value (319.4 K) of the same molecule?
A: 118.2 ± 5 J/K/mol

Q: What about the “molar heat capacity at constant pressure” value (320 K) of the same molecule?
A: 118.1 ± 5 J/K/mol

Q: What about the “molar heat capacity at constant pressure” value (320.2 K) of the same molecule?
A: 118.1 ± 5 J/K/mol

Q: And the “molar heat capacity at constant pressure” value (320.4 K)?
A: 118.4 ± 5 J/K/mol

Q: What about the “molar heat capacity at constant pressure” value (321.2 K) of the same molecule?
A: 118.3 ± 5 J/K/mol

Q: What about the “molar heat capacity at constant pressure” value (321.4 K) of the same molecule?
A: 118.5 ± 5 J/K/mol

Q: What about the “molar heat capacity at constant pressure” value (322.2 K) of the same molecule?
A: 118.5 ± 5 J/K/mol

Q: And the “molar heat capacity at constant pressure” value (322.4 K)?
A: 118.6 ± 5 J/K/mol

Q: What about the “molar heat capacity at constant pressure” value (323.2 K) of the same molecule?
A: 118.6 ± 5 J/K/mol

Q: And the “molar heat capacity at constant pressure” value (323.4 K)?
A: 118.8 ± 5 J/K/mol

Q: What about the “molar heat capacity at constant pressure” value (324.2 K) of the same molecule?
A: 118.7 ± 5 J/K/mol

Q: What about the “molar heat capacity at constant pressure” value (324.4 K) of the same molecule?
A: 118.9 ± 5 J/K/mol

Q: And the “molar heat capacity at constant pressure” value (325 K)?
A: 118.8 ± 5 J/K/mol

Q: What about the “molar heat capacity at constant pressure” value (325.2 K) of the same molecule?
A: 118.8 ± 5 J/K/mol

Q: What about the “molar heat capacity at constant pressure” value (325.4 K) of the same molecule?
A: 119 ± 5 J/K/mol

Q: What about the “molar heat capacity at constant pressure” value (326.2 K) of the same molecule?
A: 119 ± 5 J/K/mol

Q: What about the “molar heat capacity at constant pressure” value (326.4 K) of the same molecule?
A: 119.1 ± 5.1 J/K/mol

Q: And the “molar heat capacity at constant pressure” value (327.2 K)?
A: 119.1 ± 5.1 J/K/mol

Q: What about the “molar heat capacity at constant pressure” value (327.4 K) of the same molecule?
A: 119.2 ± 5.1 J/K/mol

Q: And the “molar heat capacity at constant pressure” value (328.2 K)?
A: 119.2 ± 5.1 J/K/mol

Q: What about the “molar heat capacity at constant pressure” value (328.4 K) of the same molecule?
A: 119.4 ± 5.1 J/K/mol

Q: What about the “molar heat capacity at constant pressure” value (329.2 K) of the same molecule?
A: 119.3 ± 5.1 J/K/mol

Q: What about the “molar heat capacity at constant pressure” value (329.4 K) of the same molecule?
A: 119.5 ± 5.1 J/K/mol

Q: And the “molar heat capacity at constant pressure” value (330 K)?
A: 119.5 ± 5.1 J/K/mol

Q: And the “molar heat capacity at constant pressure” value (330.2 K)?
A: 119.5 ± 5.1 J/K/mol

Q: And the “molar heat capacity at constant pressure” value (330.4 K)?
A: 119.6 ± 5.1 J/K/mol

Q: What about the “molar heat capacity at constant pressure” value (331.3 K) of the same molecule?
A: 119.7 ± 5.1 J/K/mol

Q: And the “molar heat capacity at constant pressure” value (331.4 K)?
A: 119.7 ± 5.1 J/K/mol

Q: What about the “molar heat capacity at constant pressure” value (332.3 K) of the same molecule?
A: 119.9 ± 5.1 J/K/mol

Q: What about the “molar heat capacity at constant pressure” value (332.4 K) of the same molecule?
A: 119.8 ± 5.1 J/K/mol

Q: And the “molar heat capacity at constant pressure” value (333.3 K)?
A: 120 ± 5.1 J/K/mol

Q: And the “molar heat capacity at constant pressure” value (333.4 K)?
A: 120 ± 5.1 J/K/mol

Q: And the “molar heat capacity at constant pressure” value (334.3 K)?
A: 120.1 ± 5.1 J/K/mol

Q: What about the “molar heat capacity at constant pressure” value (334.4 K) of the same molecule?
A: 120.1 ± 5.1 J/K/mol
